Measured values: patent publication US20250163122A1, “COMPOSITIONS AND METHODS FOR TREATING AIRWAY MUCUS DYSFUNCTION” (BOARD OF REGENTS, THE UNIVERSITY OF TEXAS SYSTEM, priority 2022, published 2025)
Bridges are numbered along the chain shown (N, C = ends). [ ]: non-standard residue; d: D form. S5 = C=CCCC[C@](C)(N)C(=O)O

How the values were obtained:
[1] = system: Muc5ac secretion from HAECs; experiment: Mucin (Muc5ac) secretion assay in HAECs; type: cell-based, human; conditions: for effect on stimulated secretion / reduction of stimulated (IL-13+ATP) Muc5ac secretion: 10 μM peptide, 30 min pre-incubation, metaplastic conditions; for reduction of stimulated Muc5ac secretion: metaplastic HAECs
Description: Cell culture. […] Growth medium was replaced every two days. […] The apical medium was replaced after 48 h.
Mucin secretion assay in HAECs. […] In brief, for the 24 h peptide treatment, 20 μl of DMEM+/−100 μM peptides was added to the apical surface 24 h before stimulation. On the day of the assay, cells were washed 5 times with 100 μl DMEM for 1 h for each wash on the apical side. Apical supernatants were collected after every wash ([…]), then 100 μl of DMEM+/−100 μM peptides was added to the apical surface and HAECs incubated for 15 min before collecting the supernatant (baseline wash). HAECs were then incubated for an additional 15 min with 100 μl DMEM+/−100 μM ATP (Sigma) before collection of supernatants (experimental washes). Following sample collection, cells were lysed in 100 μl of lysis buffer (lysate) containing 50 mM Tris-HCl pH 7.2, 1 mM EDTA, 1 mM EGTA, 1% Triton-X (Sigma), protease inhibitor cOmplete mini EDTA-free and phosphatase inhibitor PhosSTOP (Roche, Germany). The protocol was adapted for 30 min peptide treatment as follows. After wash 5, 100 μl of DMEM+/−10 μM or 100 μM of peptides was added to the apical surface and HAECs incubated for 30 min (baseline wash). HAECs were then incubated for 30 min with 100 μl DMEM+/−100 μM ATP to collect experimental washes.
All samples were diluted 1:10 in PBS (washes and cell lysates) and 50 μl of each sample were vacuum-aspirated onto a 0.45 μm pore nitrocellulose membrane using the Bio-Dot® MicrofiltrationApparatus (Bio-Rad). […] All steps were performed at room temperature. Fluorescent signals were acquired using the Odyssey® Fc Imaging System (Li-Cor®, USA) and quantified using ImageJ (v.2.0.0; NIH, USA). Equal volumes of samples were loaded on the gels for control and peptide treatments. […] Stimulated secretion is therefore normalized to baseline secretion within individual filters to account for filter to filter heterogeneities.

[2] = system: mouse airway epithelial cells; experiment: Mucin secretion without secretagogue after peptide aerosol in mice with mucous metaplasia; type: in vivo
Description: To investigate whether SP9 could have therapeutic benefit in vivo, SP9 conjugated to CPPs and fluorophores was introduced into mouse airways using a microsprayer inserted into the distal trachea under direct visualization with a laryngoscope. […] All subsequent studies of airway mucin secretion were therefore performed in the distal axial bronchus. […] This effect was not observed with the injection of buffer alone.
The peptide solution was injected into the airway under pressure to generate a droplet aerosol. A high concentration of peptides was used in these experiments in part because the solution is expected to be in contact with the airway epithelium only briefly and to mostly end up in the alveolar region.

[3] = system: airway lumenal mucus in mouse lung; experiment: Airway lumenal mucus accumulation in mice; type: in vivo; conditions: pretreatment, aerosol 200 μM, IL-13 then methacholine
Description: To measure airway lumenal mucus content, mucous metaplasia was induced as above, then mucin secretion and bronchoconstriction were induced by exposure for 10 min to an aerosol of 150 mM methacholine. Lungs were harvested and fixed by immersion for 48 h at 4° C. to avoid displacement of lumenal mucus and using methanol-based Carnoy's solution (methacarn) for fixation to minimize changes in mucus volume. A single transverse 5 μm section was taken through the axial bronchus of the left lung between lateral branches 1 and 2 and stained with PAFS as above to evaluate intracellular mucin to ensure secretion had been stimulated. […]
To measure the efficiency of stimulated mucin secretion and the extent of mucus accumulation in the airway lumen of WT mice treated with peptides, the same procedures as those used for analysis of Syt2 mutant mice were followed, except that both outcomes were measured in the same mouse by fixation of the left lung by inflation with formalin to measure mucin secretion and fixation of the right lung by immersion in methacarn to measure mucus accumulation. […] In addition, a MicroSprayer Aerosolizer (Penn-Century) was used for peptide delivery to the airways, secretion was measured in the left axial bronchus at a site 3 mm distal to the site used in the Syt2 mutant mice, and mucus accumulation was measured in the right caudal lobe.

[4] = system: fractional secretion of intracellular mucin in mouse airways; experiment: Stimulated mucin secretion in mice (IL-13, then methacholine); type: in vivo; conditions: pretreatment, aerosol 200 μM 30 min before secretagogue, IL-13 mice
Description: Mucin secretion and airway mucus occlusion in mice. The efficiency of stimulated mucin secretion and the extent of mucus accumulation in the airway lumen of Syt2 mutant mice were measured as described previously (Jaramillo et al, 2019). Briefly, to increase intracellular mucin content (i.e., induce mucous metaplasia), 3 μg IL-13 (BioLegend) in 40 μl PBS was instilled every other day×3 into the posterior pharynx of mice under isoflurane anesthesia to be aspirated during inhalation. […] Fractional mucin secretion was calculated as the percentage […] mucin content of mice of the same genotype treated only with IL-13. To measure intracellular airway epithelial mucin content, lungs were inflated via the trachea with 10% neutral buffered formalin to 20 cm water pressure for 24 h at 4° C., then embedded in paraffin. […] Images were acquired using an upright microscope (Olympus BX 60) with a ×40 NA 0.75 objective lens, and intracellular mucin was measured around the circumferential section of the axial bronchus using ImagePro (Media Cybernetics). Images were analyzed by investigators blinded to mouse genotype and treatment, and data are presented as the epithelial mucin volume density, signifying the measured volume of mucin overlying a unit area of epithelial baseline lamina. […]

[5] = target: Syt2 (UniProt P29101 1-422, limits assumed); experiment: cell-based or functional assay
[6] = 100 μM peptide for 24 h before stimulation

Chain of Syt2 (P29101 whole entry): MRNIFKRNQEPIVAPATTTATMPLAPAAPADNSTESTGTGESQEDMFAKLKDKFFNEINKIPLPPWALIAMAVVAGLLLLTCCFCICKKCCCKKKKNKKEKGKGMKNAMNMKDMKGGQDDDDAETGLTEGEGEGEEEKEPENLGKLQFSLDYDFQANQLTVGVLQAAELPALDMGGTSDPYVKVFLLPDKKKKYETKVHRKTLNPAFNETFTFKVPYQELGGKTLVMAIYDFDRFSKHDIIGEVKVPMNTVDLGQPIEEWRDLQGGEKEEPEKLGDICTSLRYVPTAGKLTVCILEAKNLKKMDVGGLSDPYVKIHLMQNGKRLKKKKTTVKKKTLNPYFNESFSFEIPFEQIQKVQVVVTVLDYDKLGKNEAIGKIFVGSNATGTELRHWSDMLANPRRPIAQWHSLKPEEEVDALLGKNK

Molecule: Ac-EE(S5)KDA(S5)IR(S5)LVM(S5)DEQ-(C/Cy3Mal)-amide (Ac-EE[S5]KDA[S5]IR[S5]LVM[S5]DEQC-NH2; staple 10-14, 3-7; also: Cy3 maleimide on C-terminal Cys) [SP9-Cy3]
- effect on stimulated secretion [1]: no effect
- effect on ATP-stimulated secretion [1, 6]: no effect

Molecule: H2N-GRKKRRQRRRPPQEE(S5)KDA(S5)IR(S5)LVM(S5)DEQ-(C/Cy3Mal)-amide (H-GRKKRRQRRRPPQEE[S5]KDA[S5]IR[S5]LVM[S5]DEQ-{C(Cy3 maleimide)-NH2}; staple 16-20, 23-27) [TAT-SP9-Cy3]
- reduction of stimulated (IL-13+ATP) Muc5ac secretion [1]: 86%
- reduction of stimulated Muc5ac secretion [1, 6]: 83%
- intracellular mucin content of cells that internalize the peptide ([2]; 300 μM aerosolized, left axial bronchus, IL-13 mouse, PAFS): low intracellular mucin content
- mucin secretion after peptide aerosol without secretagogue ([2]; aerosolized 1 mM, left axial bronchus, IL-13 mice): extensive apocrine mucin secretion
- mucin secretion of Cy3-labeled cells without a secretagogue (side-effect) ([2]; peptide introduced into airways of mice with mucous metaplasia): had secreted their mucin stores without stimulation

Molecule: H2N-GRKKRRQRRRPPQEESKDAGIRTLVMLDEQ-(C/Cy3Mal)-amide (H-GRKKRRQRRRPPQEESKDAGIRTLVMLDEQ-{C(Cy3 maleimide)-NH2}) [TAT-P9-Cy3, non-stapled control peptide with TAT and Cy3, reference compound]
- effect on stimulated secretion [1]: no effect

Molecule: H2N-RQIKIWFQNRRMKWKKEE(S5)KDA(S5)IR(S5)LVM(S5)DEQ-(C/Cy3Mal)-amide [PEN-SP9-Cy3]
- reduction of airway lumenal mucus accumulation in the right lung [3]: 33.1%
- reduction of stimulated (IL-13+ATP) Muc5ac secretion [1]: 48%
- reduction of stimulated Muc5ac secretion [1, 6]: 73%
- reduction of fractional secretion of intracellular mucin stimulated by methacholine [4]: 82.3%
- mucin secretion of Cy3-labeled cells without a secretagogue (side-effect) ([2]; mouse, in vivo): did not show this problem

Molecule: H2N-RQIKIWFQNRRMKWKKEESKDAGIRTLVMLDEQ-(C/Cy3Mal)-amide (H-RQIKIWFQNRRMKWKKEESKDAGIRTLVMLDEQ-{C(Cy3 maleimide)-NH2}) [PEN-P9-Cy3, non-stapled control peptide with penetratin and Cy3, reference compound]
- effect on airway lumenal mucus accumulation in the right lung [3]: no effect
- effect on stimulated secretion [1]: no effect
- effect on fractional secretion of intracellular mucin stimulated by methacholine [4]: no effect

B1: SP1 (peptide)
peptide: Ac-SKD[S5]GIR[S5]LVMLDE[S5]GEQ[S5]DR-NH2
modifications: staple 15-19, 4-8
SMILES: CC[C@H](C)[C@@H]1NC(=O)CNC(=O)[C@@](C)(NC(=O)[C@H](CC(=O)O)NC(=O)[C@H](CCCCN)NC(=O)[C@H](CO)NC(C)=O)CCCC=CCCC[C@@](C)(C(=O)N[C@@H](CC(C)C)C(=O)N[C@H](C(=O)N[C@@H](CCSC)C(=O)N[C@@H](CC(C)C)C(=O)N[C@@H](CC(=O)O)C(=O)N[C@@H](CCC(=O)O)C(=O)N[C@@]2(C)CCCC=CCCC[C@@](C)(C(=O)N[C@@H](CC(=O)O)C(=O)N[C@@H](CCCNC(=N)N)C(N)=O)NC(=O)[C@H](CCC(N)=O)NC(=O)[C@H](CCC(=O)O)NC(=O)CNC2=O)C(C)C)NC(=O)[C@H](CCCNC(=N)N)NC1=O
- inhibition of Ca2+-independent fusion probability, single vesicle content mixing with airway epithelial SNAREs and Syt2 [5]: ≤ 40%
- inhibition of Ca2+-triggered cumulative fusion probability, single vesicle content mixing with airway epithelial SNAREs and Syt2 [5]: ≤ 70%

B2: SP10 (peptide)
peptide: Ac-SKD[S5]GIR[S5]LV[S5]LDE[S5]GEQL-NH2
modifications: staple 11-15, 4-8
SMILES: CC[C@H](C)[C@@H]1NC(=O)CNC(=O)[C@@](C)(NC(=O)[C@H](CC(=O)O)NC(=O)[C@H](CCCCN)NC(=O)[C@H](CO)NC(C)=O)CCCC=CCCC[C@@](C)(C(=O)N[C@@H](CC(C)C)C(=O)N[C@H](C(=O)N[C@@]2(C)CCCC=CCCC[C@@](C)(C(=O)NCC(=O)N[C@@H](CCC(=O)O)C(=O)N[C@@H](CCC(N)=O)C(=O)N[C@@H](CC(C)C)C(N)=O)NC(=O)[C@H](CCC(=O)O)NC(=O)[C@H](CC(=O)O)NC(=O)[C@H](CC(C)C)NC2=O)C(C)C)NC(=O)[C@H](CCCNC(=N)N)NC1=O
- inhibition of Ca2+-independent fusion probability, single vesicle content mixing with airway epithelial SNAREs and Syt2 [5]: ≤ 40%
- inhibition of Ca2+-triggered cumulative fusion probability, single vesicle content mixing with airway epithelial SNAREs and Syt2 [5]: ≤ 70%

B3: SP9 (peptide)
peptide: Ac-EE[S5]KDA[S5]IR[S5]LVM[S5]DEQC-NH2
modifications: staple 10-14, 3-7
SMILES: CC[C@H](C)[C@H](NC(=O)[C@]1(C)CCCC=CCCC[C@](C)(NC(=O)[C@H](CCC(=O)O)NC(=O)[C@H](CCC(=O)O)NC(C)=O)C(=O)N[C@@H](CCCCN)C(=O)N[C@@H](CC(=O)O)C(=O)N[C@@H](C)C(=O)N1)C(=O)N[C@@H](CCCNC(=N)N)C(=O)N[C@@]1(C)CCCC=CCCC[C@@](C)(C(=O)N[C@@H](CC(=O)O)C(=O)N[C@@H](CCC(=O)O)C(=O)N[C@@H](CCC(N)=O)C(=O)N[C@@H](CS)C(N)=O)NC(=O)[C@H](CCSC)NC(=O)[C@H](C(C)C)NC(=O)[C@H](CC(C)C)NC1=O
- inhibition of Ca2+-independent fusion probability, single vesicle content mixing with airway epithelial SNAREs and Syt2 [5]: ≤ 40%
- inhibition of Ca2+-triggered cumulative fusion probability, single vesicle content mixing with airway epithelial SNAREs and Syt2 [5]: ≤ 70%

B4: SP4 (peptide)
peptide: Ac-SKDA[S5]IRT[S5]VM[S5]DEQ[S5]EQL-NH2
modifications: staple 12-16, 5-9
SMILES: CC[C@H](C)[C@@H]1NC(=O)[C@@](C)(NC(=O)[C@H](C)NC(=O)[C@H](CC(=O)O)NC(=O)[C@H](CCCCN)NC(=O)[C@H](CO)NC(C)=O)CCCC=CCCC[C@@](C)(C(=O)N[C@H](C(=O)N[C@@H](CCSC)C(=O)N[C@@]2(C)CCCC=CCCC[C@@](C)(C(=O)N[C@@H](CCC(=O)O)C(=O)N[C@@H](CCC(N)=O)C(=O)N[C@@H](CC(C)C)C(N)=O)NC(=O)[C@H](CCC(N)=O)NC(=O)[C@H](CCC(=O)O)NC(=O)[C@H](CC(=O)O)NC2=O)C(C)C)NC(=O)[C@H]([C@@H](C)O)NC(=O)[C@H](CCCNC(=N)N)NC1=O
- inhibition of Ca2+-independent fusion probability, single vesicle content mixing with airway epithelial SNAREs and Syt2 [5]: ≤ 40%
- inhibition of Ca2+-triggered cumulative fusion probability, single vesicle content mixing with airway epithelial SNAREs and Syt2 [5]: ≤ 70%
